In patent US8933228B2, “Respiratory formulations and compounds for use therein” (Respivert, Ltd., priority 2010, dated 2015):
Values belong to the compound of their own block, whether it stands above or below them.

Legend:
HCK enzyme = HCK enzyme (Homo sapiens (Human), UniProt P08631); experiment: HCK enzyme inhibition assay (FRET, Z'-LYTE); format: biochemical; conditions: read-out: Enzyme Profile: IC50 Values HCK
[1] = test system: IL-8 release in d-U937 cells; experiment: LPS-induced IL-8 release in d-U937 cells; format: cell-based; conditions: Homo sapiens, dU937; d-U937 cells, LPS 0.1 μg/mL, 4 hr; read-out: d-U937 (LPS) IL-8 IC50
Procedure, shortened: (§1)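 U937 cells made macrophage-like by 48–72 h with PMA (100 ng/mL), then stimulated with LPS (E. coli O111:B4) for 4 h. Supernatant TNFα and IL-8 measured by sandwich ELISA; inhibition versus vehicle control at each concentration, REC50 from concentration-response curve.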

p38 MAPK alpha (MAPK14) = p38 MAPK alpha (MAPK14) (Homo sapiens (Human), UniProt Q16539); experiment: Enzyme inhibition assay (FRET, Z-LYTE), p38 MAPK alpha via MAPKAP-K2 activation; format: biochemical; conditions: read-out: Enzyme Profile: IC50 Values p38α
Procedure, shortened: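 Recombinant p38 MAPKα was preincubated with compound 2 hr at RT. Its activity was measured indirectly through MAPKAP-K2 activation/phosphorylation, read by Z-LYTE FRET after 1 hr protease development. Phosphorylation was taken from the coumarin/fluorescein emission ratio.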

HRV16 = experiment: Rhinovirus-titre assay; format: cell-based, human rhinovirus; conditions: HRV16; for inhibition at 0.04 µg/mL: Human rhinovirus sp., cell not marked b, test compounds 0.04 μg/mL per method (footnote b, 0.2 μg/mL), read-out: HRV titre (inhibitory %): % inhibition observed vs. HRV16 infection control
p38 MAPK γ (MAPK12) = p38 MAPK γ (MAPK12) (Homo sapiens (Human), UniProt P53778); experiment: Enzyme inhibition assay (FRET, Z-LYTE), p38 MAPK gamma; format: biochemical; conditions: read-out: Enzyme Profile: IC50 Values p38γ
Procedure, shortened: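 Recombinant phosphorylated human p38γ preincubated with compound 2 hr at RT in HEPES buffer, then reacted 1 hr with 2 μM FRET peptide and 100 μM ATP. Protease development 1 hr; phosphorylation derived from coumarin/fluorescein emission ratio.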

[2] = test system: ICAM-1 expression in BEAS2B cells; experiment: Poly I:C-induced ICAM-1 induction in BEAS2B cells; format: cell-based; conditions: Homo sapiens, BEAS-2B; BEAS2B cells, poly I:C 1 μg/mL, 18 hr; read-out: BEAS2B (polyIC) ICAM1 IC50
Procedure, shortened: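 Human bronchial epithelial BEAS2B cells pre-incubated 2 hr with test compounds at final concentrations, then transfected with poly I:C (1 μg/mL) using Oligofectamine. Cell-surface ICAM-1 quantified by cell-based ELISA with HRP-conjugated anti-rabbit IgG secondary.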

[3] = test system: TNFα release in d-U937 cells; experiment: LPS-induced TNFα release in d-U937 cells; format: cell-based; conditions: Homo sapiens, dU937, LPS 0.1 μg/mL, 4 hr, relative to 10 μg/mL BIRB796, read-out: d-U937 (LPS) TNFα REC50
Procedure, shortened: as §1

[4] = test system: TNFα release in THP-1 cells; experiment: LPS-induced TNFα release in THP-1 cells; format: cell-based; conditions: Homo sapiens; THP-1 cells, LPS 3 μg/mL, 4 hr; read-out: THP1 (LPS) TNFα IC50
Procedure: The inhibition of TNFα production was calculated at each concentration by comparison with vehicle control.

cSrc enzyme = cSrc enzyme (Homo sapiens (Human), UniProt P12931); experiment: c-SRC enzyme inhibition assay (FRET, Z'-LYTE); format: biochemical; conditions: read-out: Enzyme Profile: IC50 Values cSrc
[5] = test system: Differentiated U937 cells; experiment: MTT assay: cell viability; format: cell-based, human; conditions: 1 μg/ml; for d-U937 MTT Assay 4 h: 5% FCS; for d-U937 MTT Assay 24 h: 10% FCS
Procedure, shortened: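 Differentiated U937 cells pre-incubated with compound either 4 hr in 5% FCS or 24 h in 10% FCS, then 1 hr MTT. Formazan dissolved in DMSO, absorbance at 550 nm. Percentage viability loss relative to 0.5% DMSO vehicle; apparent increases appear as negative percentages.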

Compound: COc1cc(-n2nc(C(C)(C)C)cc2NC(=O)Nc2ccc(Oc3ccnc4[nH]c(=O)cnc34)c3ccccc23)ccc1CO [Example 18, 1-(3-(tert-Butyl)-1-(4-(hydroxymethyl)-3-methoxyphenyl)-1H-pyrazol-5-yl)-3-(4-((3-oxo-3,4-dihydropyrido[2,3-b]pyrazin-8-yl)oxy)naphthalen-1-yl)urea]
IC50 (HCK enzyme): 5 nM
IC50 [1]: 7.4 nM
IC50 (p38 MAPK alpha (MAPK14)): 5 nM
inhibition at 0.04 µg/mL (HRV16): 80%
IC50 (p38 MAPK γ (MAPK12)): 24 nM
IC50 [2]: 15 nM
EC50 [3]: 12 nM
IC50 [4]: 17 nM
IC50 (cSrc enzyme): 6 nM
d-U937 MTT Assay 4 h [5]: − (− and + indicate the result is below and above the no significant effect threshold, respectively (<30% inhibition at a concentration of 1 μg/ml))
d-U937 MTT Assay 24 h [5]: − (− and + indicate the result is below and above the no significant effect threshold, respectively (<30% inhibition at a concentration of 1 μg/ml))

Compound: CC(C)(C)c1cc(NC(=O)Nc2ccc(Oc3ccnc4[nH]c(=O)cnc34)c3ccccc23)n(-c2ccc(S(C)(=O)=O)cc2)n1 [Example 31, 1-(3-(tert-butyl)-1-(4-(methylsulfonyl)phenyl)-1H-pyrazol-5-yl)-3-(4-((3-oxo-3,4-dihydropyrido[2,3-b]pyrazin-8-yl)oxy)naphthalen-1-yl)urea]
IC50 (HCK enzyme): 3 nM
IC50 [1]: 68 nM
IC50 (p38 MAPK alpha (MAPK14)): 5 nM
inhibition at 0.04 µg/mL (HRV16): 8%
IC50 (p38 MAPK γ (MAPK12)): 47 nM
IC50 [2]: 178 nM
EC50 [3]: 60 nM
IC50 [4]: 62 nM
IC50 (cSrc enzyme): 6 nM
d-U937 MTT Assay 4 h [5]: − (− and + indicate the result is below and above the no significant effect threshold, respectively (<30% inhibition at a concentration of 1 μg/ml))
d-U937 MTT Assay 24 h [5]: − (− and + indicate the result is below and above the no significant effect threshold, respectively (<30% inhibition at a concentration of 1 μg/ml))

Compound: Cc1ccc(-n2nc(C3(C)CC3)cc2NC(=O)Nc2ccc(Oc3ccnc4[nH]c(=O)cnc34)c3ccccc23)cc1 [Example 29]
IC50 (HCK enzyme): 4 nM
IC50 [1]: 6.7 nM
IC50 (p38 MAPK alpha (MAPK14)): 5 nM
inhibition at 0.04 µg/mL (HRV16): 60%
IC50 (p38 MAPK γ (MAPK12)): 19 nM
IC50 [2]: 13 nM
EC50 [3]: 5.6 nM
IC50 [4]: 17 nM
IC50 (cSrc enzyme): 10 nM
d-U937 MTT Assay 4 h [5]: − (− and + indicate the result is below and above the no significant effect threshold, respectively (<30% inhibition at a concentration of 1 μg/ml))
d-U937 MTT Assay 24 h [5]: − (− and + indicate the result is below and above the no significant effect threshold, respectively (<30% inhibition at a concentration of 1 μg/ml))

Compound: COc1ccc(-n2nc(C(C)(C)C)cc2NC(=O)Nc2ccc(Oc3ccnc4[nH]c(=O)n(C)c34)c3ccccc23)cc1 [Example 10]
IC50 (HCK enzyme): 3 nM
IC50 [1]: 1 nM
IC50 (p38 MAPK alpha (MAPK14)): 6 nM
inhibition at 0.04 µg/mL (HRV16): 91%
IC50 (p38 MAPK γ (MAPK12)): 45 nM
IC50 [2]: 6 nM
EC50 [3]: 1.3 nM
IC50 [4]: 0.6 nM
IC50 (cSrc enzyme): 7 nM
d-U937 MTT Assay 4 h [5]: − (− and + indicate the result is below and above the no significant effect threshold, respectively (<30% inhibition at a concentration of 1 μg/ml))
d-U937 MTT Assay 24 h [5]: − (− and + indicate the result is below and above the no significant effect threshold, respectively (<30% inhibition at a concentration of 1 μg/ml))

Compound: CCn1c(=O)[nH]c2nccc(Oc3ccc(NC(=O)Nc4cc(C(C)(C)C)nn4-c4ccc(OC)cc4)c4ccccc34)c21 [Example 11]
IC50 (HCK enzyme): 5 nM
IC50 [1]: 1.6 nM
IC50 (p38 MAPK alpha (MAPK14)): 2 nM
inhibition at 0.04 µg/mL (HRV16): 60%
IC50 (p38 MAPK γ (MAPK12)): 348 nM
IC50 [2]: 3.6 nM
EC50 [3]: 0.7 nM
IC50 [4]: 4 nM
IC50 (cSrc enzyme): 9 nM
d-U937 MTT Assay 4 h [5]: − (− and + indicate the result is below and above the no significant effect threshold, respectively (<30% inhibition at a concentration of 1 μg/ml))
d-U937 MTT Assay 24 h [5]: − (− and + indicate the result is below and above the no significant effect threshold, respectively (<30% inhibition at a concentration of 1 μg/ml))

Compound: COc1ccc(-n2nc(C(C)(C)C)cc2NC(=O)Nc2ccc(Oc3ccnc4[nH]c(=O)cnc34)c3ccccc23)cc1 [Example 25, 1-(3-(tert-butyl)-1-(4-methoxyphenyl)-1H-pyrazol-5-yl)-3-(4-((3-oxo-3,4-dihydropyrido[2,3-b]pyrazin-8-yl)oxy)naphthalen-1-yl)urea]
IC50 (HCK enzyme): 5 nM
IC50 [1]: 8.1 nM
IC50 (p38 MAPK alpha (MAPK14)): 4 nM
inhibition at 0.04 µg/mL (HRV16): 36%
IC50 (p38 MAPK γ (MAPK12)): 50 nM
IC50 [2]: 8.3 nM
EC50 [3]: 1.8 nM
IC50 [4]: 1.6 nM
IC50 (cSrc enzyme): 12 nM
d-U937 MTT Assay 4 h [5]: − (− and + indicate the result is below and above the no significant effect threshold, respectively (<30% inhibition at a concentration of 1 μg/ml))
d-U937 MTT Assay 24 h [5]: − (− and + indicate the result is below and above the no significant effect threshold, respectively (<30% inhibition at a concentration of 1 μg/ml))

Continued, in another order:

IC50 (HCK enzyme): 4 nM
IC50 [1]: 9.4 nM
IC50 (p38 MAPK alpha (MAPK14)): 5 nM
IC50 (p38 MAPK γ (MAPK12)): 74 nM
EC50 [3]: 8.2 nM
IC50 [4]: 13 nM
IC50 (cSrc enzyme): 7 nM
Compound: CSc1ccc(-n2nc(C(C)(C)C)cc2NC(=O)Nc2ccc(Oc3ccnc4[nH]c(=O)cnc34)c3ccccc23)cc1 [Example 33, 1-(3-(tert-butyl)-1-(4-(methylthio)phenyl)-1H-pyrazol-5-yl)-3-(4-((3-oxo-3,4-dihydropyrido[2,3-b]pyrazin-8-yl)oxy)naphthalen-1-yl)urea]
inhibition at 0.04 µg/mL (HRV16): 80%
IC50 [2]: 3.2 nM
d-U937 MTT Assay 4 h [5]: − (− and + indicate the result is below and above the no significant effect threshold, respectively (<30% inhibition at a concentration of 1 μg/ml))
d-U937 MTT Assay 24 h [5]: − (− and + indicate the result is below and above the no significant effect threshold, respectively (<30% inhibition at a concentration of 1 μg/ml))

IC50 (HCK enzyme): 3 nM
IC50 [1]: 4.1 nM
IC50 (p38 MAPK alpha (MAPK14)): 2 nM
IC50 (p38 MAPK γ (MAPK12)): 43 nM
EC50 [3]: 6.2 nM
IC50 [4]: 13 nM
IC50 (cSrc enzyme): 5 nM
Compound: CC(C)(C)c1cc(NC(=O)Nc2ccc(Oc3ccnc4[nH]c(=O)cnc34)c3ccccc23)n(-c2ccccc2)n1 [Example 5, 1-(3-(tert-butyl)-1-phenyl-1H-pyrazol-5-yl)-3-(4-((3-oxo-3,4-dihydropyrido[2,3-b]pyrazin-8-yl)oxy)naphthalen-1-yl) urea]
inhibition at 0.04 µg/mL (HRV16): 36%
IC50 [2]: 6.6 nM
d-U937 MTT Assay 4 h [5]: − (− and + indicate the result is below and above the no significant effect threshold, respectively (<30% inhibition at a concentration of 1 μg/ml))
d-U937 MTT Assay 24 h [5]: − (− and + indicate the result is below and above the no significant effect threshold, respectively (<30% inhibition at a concentration of 1 μg/ml))

IC50 (HCK enzyme): < 2 nM
IC50 [1]: 7.5 nM
IC50 (p38 MAPK alpha (MAPK14)): 5 nM
IC50 (p38 MAPK γ (MAPK12)): 67 nM
EC50 [3]: 3 nM
IC50 [4]: 1.4 nM
IC50 (cSrc enzyme): 36 nM
Compound: CC(C)(C)c1cc(NC(=O)Nc2ccc(Oc3ccnc4[nH]c(=O)[nH]c34)c3ccccc23)n(-c2ccccc2)n1 [Example 2, 1-(3-tert-butyl-1-phenyl-1H-pyrazol-5-yl)-3-(4-(2-oxo-2,3-dihydro-1H-imidazo [4,5-b]pyridin-7-yloxy)naphthalen-1-yl) urea]
inhibition at 0.04 µg/mL (HRV16): 60%
NBEC (HRV) HRV titre Relative anti-viral activity (HRV16; at 0.04 μg/mL vs. pleconaril at 0.1 μg/mL): 1
IC50 [2]: 9.8 nM
d-U937 MTT Assay 4 h [5]: − (− and + indicate the result is below and above the no significant effect threshold, respectively (<30% inhibition at a concentration of 1 μg/ml))
d-U937 MTT Assay 24 h [5]: − (− and + indicate the result is below and above the no significant effect threshold, respectively (<30% inhibition at a concentration of 1 μg/ml))
